These results are taken from ChEMBL document CHEMBL3872266, “Synthesis and characterization of novel, conjugated, fluorescent DNJ derivatives for α-glucosidase recognition” (Bioorg Med Chem, 2017).

Test [1] can be described thus: Inhibition of almond beta-glucosidase assessed as reduction in production of D-glucose using disaccharides as substrate incubated for 10 to 30 mins. Also on record: species or system Prunus dulcis.
The nature of test [2]: Inhibition of rice alpha-glucosidase assessed as reduction in production of D-glucose using disaccharides as substrate incubated for 10 to 30 mins. Further details: species or system Oryza sativa.
In test [3] the target is T1, Sucrase-isomaltase, intestinal (Rattus norvegicus, UniProt P23739). Put plainly: Inhibition of rat small intestinal brush border membrane sucrase assessed as reduction in production of D-glucose using disaccharides as substrate incubated for 10 to 30 mins.
Test [4] can be described thus: Inhibition of rat small intestinal brush border membrane maltase assessed as reduction in production of D-glucose using maltose as substrate incubated for 10 to 30 mins.
Test [5] can be described thus: Inhibition of rat small intestinal brush border membrane cellobiase assessed as reduction in production of D-glucose using disaccharides as substrate incubated for 10 to 30 mins.
For test [6], the target named is T1, Sucrase-isomaltase, intestinal. Put plainly: Inhibition of rat small intestinal brush border membrane isomaltase assessed as reduction in production of D-glucose using disaccharides as substrate incubated for 10 to 30 mins.

T1 sequence (P23739 1-1013 limits assumed): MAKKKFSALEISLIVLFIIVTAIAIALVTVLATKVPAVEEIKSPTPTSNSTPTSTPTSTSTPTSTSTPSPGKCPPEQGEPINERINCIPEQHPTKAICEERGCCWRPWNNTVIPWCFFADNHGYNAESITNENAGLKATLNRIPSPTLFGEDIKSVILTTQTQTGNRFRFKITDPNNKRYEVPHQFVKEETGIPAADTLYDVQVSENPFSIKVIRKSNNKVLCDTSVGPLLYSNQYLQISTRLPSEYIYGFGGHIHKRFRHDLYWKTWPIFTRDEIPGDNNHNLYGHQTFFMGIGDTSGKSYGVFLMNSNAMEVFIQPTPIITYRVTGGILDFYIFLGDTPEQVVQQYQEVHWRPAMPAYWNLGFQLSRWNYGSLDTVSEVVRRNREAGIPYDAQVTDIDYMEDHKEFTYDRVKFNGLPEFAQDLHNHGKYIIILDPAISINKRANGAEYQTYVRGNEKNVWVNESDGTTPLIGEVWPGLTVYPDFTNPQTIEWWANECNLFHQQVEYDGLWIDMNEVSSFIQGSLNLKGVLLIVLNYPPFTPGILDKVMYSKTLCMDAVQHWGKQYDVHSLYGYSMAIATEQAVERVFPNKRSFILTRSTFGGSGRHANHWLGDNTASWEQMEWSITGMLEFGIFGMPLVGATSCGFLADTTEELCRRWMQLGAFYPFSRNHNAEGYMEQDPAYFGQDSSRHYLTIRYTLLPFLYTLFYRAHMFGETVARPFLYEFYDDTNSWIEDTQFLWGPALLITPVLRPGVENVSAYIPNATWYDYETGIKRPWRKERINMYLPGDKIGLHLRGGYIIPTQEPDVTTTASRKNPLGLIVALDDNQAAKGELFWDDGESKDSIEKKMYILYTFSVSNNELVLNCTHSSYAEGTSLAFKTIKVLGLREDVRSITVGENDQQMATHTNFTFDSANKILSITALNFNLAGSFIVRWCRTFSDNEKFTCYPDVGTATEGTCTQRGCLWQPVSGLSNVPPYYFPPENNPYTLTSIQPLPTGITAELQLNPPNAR
T1 sequence (P23739 1014-1841 limits assumed): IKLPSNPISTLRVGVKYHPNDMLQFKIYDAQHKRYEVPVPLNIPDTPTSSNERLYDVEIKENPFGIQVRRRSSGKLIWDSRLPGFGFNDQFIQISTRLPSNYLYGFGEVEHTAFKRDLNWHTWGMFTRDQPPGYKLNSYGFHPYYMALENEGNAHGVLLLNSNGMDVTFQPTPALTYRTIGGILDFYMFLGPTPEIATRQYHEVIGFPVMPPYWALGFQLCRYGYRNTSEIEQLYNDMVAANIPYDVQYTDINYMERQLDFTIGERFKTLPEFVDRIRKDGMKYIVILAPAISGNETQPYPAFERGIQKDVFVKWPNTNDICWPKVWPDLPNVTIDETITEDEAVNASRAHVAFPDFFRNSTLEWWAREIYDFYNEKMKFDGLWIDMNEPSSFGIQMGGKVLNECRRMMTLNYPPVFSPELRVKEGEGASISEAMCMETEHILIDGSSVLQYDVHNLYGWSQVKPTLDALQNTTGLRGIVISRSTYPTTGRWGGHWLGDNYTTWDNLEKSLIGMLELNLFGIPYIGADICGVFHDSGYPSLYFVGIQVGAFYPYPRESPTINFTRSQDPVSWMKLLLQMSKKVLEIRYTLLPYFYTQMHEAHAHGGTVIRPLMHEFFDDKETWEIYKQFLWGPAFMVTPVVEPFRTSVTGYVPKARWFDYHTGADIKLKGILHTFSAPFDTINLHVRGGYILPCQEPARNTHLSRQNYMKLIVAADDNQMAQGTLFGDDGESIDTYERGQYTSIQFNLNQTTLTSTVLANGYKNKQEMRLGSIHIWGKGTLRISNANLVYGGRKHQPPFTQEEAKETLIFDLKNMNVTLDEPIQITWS

In the case of `Cc1cc(=O)oc2cc(OCCCCn3cc(CCCCN4C[C@H](O)[C@@H](O)[C@H](O)[C@H]4CO)nn3)ccc12`, the IC50 in test [1] came out at 9.3 µM; in test [2], 0.042 µM; in test [3], 0.54 µM; in test [4] it was 0.15 µM; in test [5], 53.6 µM; in test [6], 1.4 µM.

On to `OCCN1C[C@H](O)[C@@H](O)[C@H](O)[C@H]1CO` [MIGLITOL], for which the IC50 turned out to be 378 µM in test [1], 0.099 µM in test [2], 0.59 µM in test [4] and 164 µM in test [5].

As for `CCN(CC)c1ccc2cc(C(=O)NCCOCCOCCOCCn3cc(CCCCN4C[C@H](O)[C@@H](O)[C@H](O)[C@H]4CO)nn3)c(=O)oc2c1`, the concentration for half-maximal inhibition (IC50) in test [2] came to 0.11 µM; in test [3], 1.4 µM; in test [4] it was 0.1 µM; in test [5], 304 µM; in test [6], 13.6 µM.

For `O=c1ccc2nc3ccc(OCCCCn4cc(CCCCN5C[C@H](O)[C@@H](O)[C@H](O)[C@H]5CO)nn4)cc3oc-2c1`, the concentration for half-maximal inhibition (IC50) in test [2] came to 2.1 µM; in test [3], 2.7 µM; in test [4], 0.65 µM; in test [5], 175 µM; in test [6], 6.3 µM.

As to `CN(C)c1cccc2c(S(=O)(=O)NCCOCCn3cc(CCCCN4C[C@H](O)[C@@H](O)[C@H](O)[C@H]4CO)nn3)cccc12`, the IC50 was found to be 97.8 µM in test [1]; 0.091 µM in test [2]; 1.9 µM in test [3]; 0.91 µM in test [4]; 414 µM in test [5]; 4.6 µM in test [6].

For the compound `OC[C@H]1NC[C@H](O)[C@@H](O)[C@@H]1O` [DUVOGLUSTAT], the values for the IC50 in test [1], in test [2] and in test [5] were 85 µM, 0.05 µM and 327 µM, respectively.

As to `O=c1cc(C(F)(F)F)c2ccc(OCCCCn3cc(CCCCN4C[C@H](O)[C@@H](O)[C@H](O)[C@H]4CO)nn3)cc2o1`, the IC50 in test [1] was 3.8 µM; in test [2] it was 0.057 µM; in test [3], 0.95 µM; in test [4], 0.54 µM; in test [5] it was 219 µM; in test [6] it was 4.1 µM.

In general, IC50 refers to the concentration that gives 50% inhibition.
